What was measured:
[1] = molecular target: T1, RSK4(Kin.Dom.1-N-terminal) (Homo sapiens, UniProt Q9UK32); assay: kinome scan; format: binding; conditions: 10 µM
T1 construct: RSK4(Kin.Dom.1-N-terminal); purchased DiscoverX (KINOMEscan)

PIK3CD = molecular target: T2, PIK3CD (Homo sapiens, UniProt O00329); assay: kinome scan; format: binding; conditions: 10 µM
T2 construct: purchased DiscoverX (KINOMEscan)

LYN = molecular target: T3, LYN (Homo sapiens, UniProt P07948); assay: kinome scan; format: binding; conditions: 10 µM
T3 construct: purchased DiscoverX (KINOMEscan)

PLK2 = molecular target: T4, PLK2 (Homo sapiens, UniProt Q9NYY3); assay: kinome scan; format: binding; conditions: 10 µM
T4 construct: purchased DiscoverX (KINOMEscan)

CSNK2A2 = molecular target: T5, CSNK2A2 (Homo sapiens, UniProt P19784); assay: kinome scan; format: binding; conditions: 10 µM
T5 construct: purchased DiscoverX (KINOMEscan)

[2] = molecular target: T6, ABL1(F317L)-phosphorylated (Homo sapiens, UniProt P00519, F317L); assay: kinome scan; format: binding; conditions: 10 µM
T6 construct: purchased DiscoverX (KINOMEscan)

MERTK = molecular target: T7, MERTK (Homo sapiens, UniProt Q12866); assay: kinome scan; format: binding; conditions: 10 µM
T7 construct: purchased DiscoverX (KINOMEscan)

[3] = molecular target: T8, ABL1(F317L)-nonphosphorylated (Homo sapiens, UniProt P00519, F317L); assay: kinome scan; format: binding; conditions: 10 µM
T8 construct: purchased DiscoverX (KINOMEscan)

ADCK4 = molecular target: T9, ADCK4 (Homo sapiens, UniProt Q96D53); assay: kinome scan; format: binding; conditions: 10 µM
T9 construct: purchased DiscoverX (KINOMEscan)

EGFR(T790M) = molecular target: T10, EGFR(T790M) (Homo sapiens, UniProt P00533, T790M); assay: kinome scan; format: binding; conditions: 10 µM
T10 construct: purchased DiscoverX (KINOMEscan)

CGR8 PSC = assay: ATP quantification (ATPlite), cell proliferation/viability; format: cell-based, mouse; conditions: PSC exposed for three days
Method: Cell viability was measured in PSC by using the ATPlite Luminescence Assay System (Perkin Elmer). PSC were plated in gelatine-coated 96-well plates at a density of 10,000 cells-cm^2 in their standard medium. At different time points, the substrate for emission of luminescence in the presence of ATP was added according to the manufacturer’s instructions. Luminescence was measured with the SpectraMax L Microplate Luminometer (Molecular Devices).
The effects of the drug on proliferation or differentiation was next investigated in quantitative assays.

CDK7 = molecular target: T11, CDK7 (Homo sapiens, UniProt P50613); assay: kinome scan; format: binding; conditions: 10 µM
T11 construct: purchased DiscoverX (KINOMEscan)

AXL = molecular target: T12, AXL (Homo sapiens, UniProt P30530); assay: kinome scan; format: binding; conditions: 10 µM
T12 construct: purchased DiscoverX (KINOMEscan)

AKT2 = molecular target: T13, AKT2 (Homo sapiens, UniProt P31751); assay: kinome scan; format: binding; conditions: 10 µM
T13 construct: purchased DiscoverX (KINOMEscan)

AKT3 = molecular target: T14, AKT3 (Homo sapiens, UniProt Q9Y243); assay: kinome scan; format: binding; conditions: 10 µM
T14 construct: purchased DiscoverX (KINOMEscan)

CSK = molecular target: T15, CSK (Homo sapiens, UniProt P41240); assay: kinome scan; format: binding; conditions: 10 µM
T15 construct: purchased DiscoverX (KINOMEscan)

HIPK4 = molecular target: T16, HIPK4 (Homo sapiens, UniProt Q8NE63); assay: kinome scan; format: binding; conditions: 10 µM
T16 construct: purchased DiscoverX (KINOMEscan)

FLT3 = molecular target: T17, FLT3 (Homo sapiens, UniProt P36888); assay: kinome scan; format: binding
T17 construct: purchased DiscoverX (KINOMEscan)

CDKL3 = molecular target: T18, CDKL3 (Homo sapiens, UniProt Q8IVW4); assay: kinome scan; format: binding; conditions: 10 µM
T18 construct: purchased DiscoverX (KINOMEscan)

MEK3 = molecular target: T19, MEK3 (Homo sapiens, UniProt P46734); assay: kinome scan; format: binding; conditions: 10 µM
T19 construct: purchased DiscoverX (KINOMEscan)

ERN1 = molecular target: T20, ERN1 (Homo sapiens, UniProt O75460); assay: kinome scan; format: binding; conditions: 10 µM
T20 construct: purchased DiscoverX (KINOMEscan)

CAMK2G = molecular target: T21, CAMK2G (Homo sapiens, UniProt Q13555); assay: kinome scan; format: binding; conditions: 10 µM
T21 construct: purchased DiscoverX (KINOMEscan)

ERK3 = molecular target: T22, ERK3 (Homo sapiens, UniProt Q16659); assay: kinome scan; format: binding; conditions: 10 µM
T22 construct: purchased DiscoverX (KINOMEscan)

DAPK1 = molecular target: T23, DAPK1 (Homo sapiens, UniProt P53355); assay: kinome scan; format: binding; conditions: 10 µM
T23 construct: purchased DiscoverX (KINOMEscan)

PKMYT1 = molecular target: T24, PKMYT1 (Homo sapiens, UniProt Q99640); assay: kinome scan; format: binding; conditions: 10 µM
T24 construct: purchased DiscoverX (KINOMEscan)

SYK = molecular target: T25, SYK (Homo sapiens, UniProt P43405); assay: kinome scan; format: binding; conditions: 10 µM
T25 construct: purchased DiscoverX (KINOMEscan)

IKK-alpha = molecular target: T26, IKK-alpha (Homo sapiens, UniProt O15111); assay: kinome scan; format: binding; conditions: 10 µM
T26 construct: purchased DiscoverX (KINOMEscan)

PIM3 = molecular target: T27, PIM3 (Homo sapiens, UniProt Q86V86); assay: kinome scan; format: binding; conditions: 10 µM
T27 construct: purchased DiscoverX (KINOMEscan)

CDK9 = molecular target: T28, CDK9 (Homo sapiens, UniProt P50750); assay: kinome scan; format: binding; conditions: 10 µM
T28 construct: purchased DiscoverX (KINOMEscan)

RET(M918T) = molecular target: T29, RET(M918T) (Homo sapiens, UniProt P07949, M918T); assay: kinome scan; format: binding; conditions: 10 µM
T29 construct: purchased DiscoverX (KINOMEscan)

CDK11 = molecular target: T30, CDK11 (Homo sapiens, UniProt Q9BWU1); assay: kinome scan; format: binding; conditions: 10 µM
T30 construct: purchased DiscoverX (KINOMEscan)

TGFBR2 = molecular target: T31, TGFBR2 (Homo sapiens, UniProt P37173); assay: kinome scan; format: binding; conditions: 10 µM
T31 construct: purchased DiscoverX (KINOMEscan)

MRCKA = molecular target: T32, MRCKA (Homo sapiens, UniProt Q5VT25); assay: kinome scan; format: binding; conditions: 10 µM
T32 construct: purchased DiscoverX (KINOMEscan)

MYLK2 = molecular target: T33, MYLK2 (Homo sapiens, UniProt Q9H1R3); assay: kinome scan; format: binding; conditions: 10 µM
T33 construct: purchased DiscoverX (KINOMEscan)

EPHA2 = molecular target: T34, EPHA2 (Homo sapiens, UniProt P29317); assay: kinome scan; format: binding; conditions: 10 µM
T34 construct: purchased DiscoverX (KINOMEscan)

EGFR(G719C) = molecular target: T35, EGFR(G719C) (Homo sapiens, UniProt P00533, G719C); assay: kinome scan; format: binding; conditions: 10 µM
T35 construct: purchased DiscoverX (KINOMEscan)

RAF1 = molecular target: T36, RAF1 (Homo sapiens, UniProt P04049); assay: kinome scan; format: binding; conditions: 10 µM
T36 construct: purchased DiscoverX (KINOMEscan)

SRC = molecular target: T37, SRC (Homo sapiens, UniProt P12931); assay: kinome scan; format: binding; conditions: 10 µM
T37 construct: purchased DiscoverX (KINOMEscan)

IKK-epsilon = molecular target: T38, IKK-epsilon (Homo sapiens, UniProt Q14164); assay: kinome scan; format: binding; conditions: 10 µM
T38 construct: purchased DiscoverX (KINOMEscan)

PCTK1 = molecular target: T39, PCTK1 (Homo sapiens, UniProt Q00536); assay: kinome scan; format: binding; conditions: 10 µM
T39 construct: purchased DiscoverX (KINOMEscan)

DMPK = molecular target: T40, DMPK (Homo sapiens, UniProt Q09013); assay: kinome scan; format: binding; conditions: 10 µM
T40 construct: purchased DiscoverX (KINOMEscan)

BMX = molecular target: T41, BMX (Homo sapiens, UniProt P51813); assay: kinome scan; format: binding; conditions: 10 µM
T41 construct: purchased DiscoverX (KINOMEscan)

MLK2 = molecular target: T42, MLK2 (Homo sapiens, UniProt Q02779); assay: kinome scan; format: binding; conditions: 10 µM
T42 construct: purchased DiscoverX (KINOMEscan)

T17 sequence (P36888 27-993): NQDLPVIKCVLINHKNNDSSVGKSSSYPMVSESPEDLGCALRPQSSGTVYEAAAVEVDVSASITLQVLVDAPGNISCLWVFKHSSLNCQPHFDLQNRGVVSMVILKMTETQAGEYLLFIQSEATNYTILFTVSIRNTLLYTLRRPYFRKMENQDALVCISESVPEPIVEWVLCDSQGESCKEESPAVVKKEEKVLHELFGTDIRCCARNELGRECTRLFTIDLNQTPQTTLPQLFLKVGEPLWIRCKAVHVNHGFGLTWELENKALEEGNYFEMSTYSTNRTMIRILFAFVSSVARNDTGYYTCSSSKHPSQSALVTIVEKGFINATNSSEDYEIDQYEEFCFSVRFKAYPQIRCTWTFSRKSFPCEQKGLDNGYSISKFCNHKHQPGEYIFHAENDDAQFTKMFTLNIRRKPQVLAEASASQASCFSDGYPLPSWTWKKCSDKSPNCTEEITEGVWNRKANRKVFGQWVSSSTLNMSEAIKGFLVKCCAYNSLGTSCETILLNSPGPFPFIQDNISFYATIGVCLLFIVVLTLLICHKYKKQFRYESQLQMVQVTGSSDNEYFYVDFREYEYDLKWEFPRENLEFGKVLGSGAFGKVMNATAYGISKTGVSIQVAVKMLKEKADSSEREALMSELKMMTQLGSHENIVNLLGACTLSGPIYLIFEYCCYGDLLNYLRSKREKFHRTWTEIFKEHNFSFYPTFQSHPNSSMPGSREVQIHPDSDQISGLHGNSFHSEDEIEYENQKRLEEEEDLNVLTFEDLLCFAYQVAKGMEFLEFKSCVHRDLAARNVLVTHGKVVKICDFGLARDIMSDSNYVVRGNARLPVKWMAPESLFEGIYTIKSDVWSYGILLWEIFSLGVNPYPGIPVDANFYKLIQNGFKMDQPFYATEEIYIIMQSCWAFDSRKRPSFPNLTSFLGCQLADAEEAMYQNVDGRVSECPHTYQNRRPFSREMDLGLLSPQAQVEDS
T3 sequence (P07948 whole entry): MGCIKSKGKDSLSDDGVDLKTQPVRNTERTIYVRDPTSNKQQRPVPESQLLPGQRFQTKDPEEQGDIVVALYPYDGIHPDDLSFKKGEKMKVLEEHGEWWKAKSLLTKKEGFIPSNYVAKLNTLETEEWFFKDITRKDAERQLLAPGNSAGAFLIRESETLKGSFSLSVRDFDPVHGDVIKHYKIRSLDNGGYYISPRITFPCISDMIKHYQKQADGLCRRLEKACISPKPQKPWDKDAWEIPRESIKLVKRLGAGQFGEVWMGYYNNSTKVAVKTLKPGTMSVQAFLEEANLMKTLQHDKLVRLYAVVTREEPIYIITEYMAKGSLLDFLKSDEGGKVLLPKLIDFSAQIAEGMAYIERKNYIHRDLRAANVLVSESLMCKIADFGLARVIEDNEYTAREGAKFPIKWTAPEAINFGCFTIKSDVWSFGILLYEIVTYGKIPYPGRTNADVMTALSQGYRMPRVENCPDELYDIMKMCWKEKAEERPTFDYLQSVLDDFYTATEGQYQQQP
T40 sequence (Q09013 whole entry): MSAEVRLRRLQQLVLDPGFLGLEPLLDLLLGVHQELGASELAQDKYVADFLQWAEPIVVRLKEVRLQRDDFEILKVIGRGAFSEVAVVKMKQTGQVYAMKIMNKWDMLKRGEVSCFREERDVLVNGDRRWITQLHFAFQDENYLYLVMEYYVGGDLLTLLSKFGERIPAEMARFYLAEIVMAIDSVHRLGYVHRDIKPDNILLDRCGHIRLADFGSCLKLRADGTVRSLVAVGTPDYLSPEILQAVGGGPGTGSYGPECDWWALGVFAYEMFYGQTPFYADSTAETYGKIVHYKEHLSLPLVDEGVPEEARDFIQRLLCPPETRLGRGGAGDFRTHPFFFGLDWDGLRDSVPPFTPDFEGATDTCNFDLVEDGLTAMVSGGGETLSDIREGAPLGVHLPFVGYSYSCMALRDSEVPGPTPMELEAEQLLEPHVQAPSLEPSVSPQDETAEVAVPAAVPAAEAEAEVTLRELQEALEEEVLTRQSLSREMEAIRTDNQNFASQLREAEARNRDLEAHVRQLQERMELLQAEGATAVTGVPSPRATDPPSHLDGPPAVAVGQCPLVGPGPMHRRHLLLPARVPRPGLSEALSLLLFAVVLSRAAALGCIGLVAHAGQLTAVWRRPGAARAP
T34 sequence (P29317 24-976): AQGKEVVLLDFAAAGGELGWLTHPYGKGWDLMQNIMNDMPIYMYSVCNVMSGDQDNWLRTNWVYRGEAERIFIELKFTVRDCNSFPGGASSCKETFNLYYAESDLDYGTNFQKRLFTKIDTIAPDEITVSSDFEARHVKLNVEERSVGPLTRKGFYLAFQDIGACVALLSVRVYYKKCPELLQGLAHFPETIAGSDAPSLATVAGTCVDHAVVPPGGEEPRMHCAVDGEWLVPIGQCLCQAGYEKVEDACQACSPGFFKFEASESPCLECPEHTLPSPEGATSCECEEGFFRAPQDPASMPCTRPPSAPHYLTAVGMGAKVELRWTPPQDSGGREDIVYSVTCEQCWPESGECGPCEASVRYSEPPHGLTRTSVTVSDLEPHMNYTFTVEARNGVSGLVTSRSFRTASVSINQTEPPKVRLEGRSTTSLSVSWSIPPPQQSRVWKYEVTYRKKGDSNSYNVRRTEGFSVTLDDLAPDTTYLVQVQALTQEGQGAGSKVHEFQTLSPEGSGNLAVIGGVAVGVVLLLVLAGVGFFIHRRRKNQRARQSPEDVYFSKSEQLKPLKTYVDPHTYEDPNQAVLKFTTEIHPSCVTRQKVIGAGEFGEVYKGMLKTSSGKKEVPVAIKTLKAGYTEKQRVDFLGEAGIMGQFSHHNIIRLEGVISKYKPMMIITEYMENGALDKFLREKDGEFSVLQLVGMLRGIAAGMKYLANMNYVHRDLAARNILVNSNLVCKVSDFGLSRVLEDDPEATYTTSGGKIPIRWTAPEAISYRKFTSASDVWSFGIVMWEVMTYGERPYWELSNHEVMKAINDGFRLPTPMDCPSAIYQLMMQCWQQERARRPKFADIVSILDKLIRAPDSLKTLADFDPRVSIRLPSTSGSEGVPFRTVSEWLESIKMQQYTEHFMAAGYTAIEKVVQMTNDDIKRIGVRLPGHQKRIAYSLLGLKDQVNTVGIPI
T24 sequence (Q99640 whole entry): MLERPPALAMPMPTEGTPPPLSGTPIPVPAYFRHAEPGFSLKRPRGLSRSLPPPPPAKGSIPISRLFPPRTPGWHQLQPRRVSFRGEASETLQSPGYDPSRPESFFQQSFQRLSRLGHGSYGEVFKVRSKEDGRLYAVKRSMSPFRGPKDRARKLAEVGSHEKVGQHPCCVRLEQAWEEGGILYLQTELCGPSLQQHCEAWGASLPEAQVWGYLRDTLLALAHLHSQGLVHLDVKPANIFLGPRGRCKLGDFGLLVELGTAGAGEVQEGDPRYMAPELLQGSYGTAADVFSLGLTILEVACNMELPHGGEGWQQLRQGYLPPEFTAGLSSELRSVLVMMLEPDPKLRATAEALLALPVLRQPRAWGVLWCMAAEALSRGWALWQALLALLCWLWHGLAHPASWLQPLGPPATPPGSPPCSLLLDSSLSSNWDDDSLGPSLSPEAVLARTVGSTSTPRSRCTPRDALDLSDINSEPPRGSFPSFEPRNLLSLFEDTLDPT
T18 sequence (Q8IVW4 whole entry): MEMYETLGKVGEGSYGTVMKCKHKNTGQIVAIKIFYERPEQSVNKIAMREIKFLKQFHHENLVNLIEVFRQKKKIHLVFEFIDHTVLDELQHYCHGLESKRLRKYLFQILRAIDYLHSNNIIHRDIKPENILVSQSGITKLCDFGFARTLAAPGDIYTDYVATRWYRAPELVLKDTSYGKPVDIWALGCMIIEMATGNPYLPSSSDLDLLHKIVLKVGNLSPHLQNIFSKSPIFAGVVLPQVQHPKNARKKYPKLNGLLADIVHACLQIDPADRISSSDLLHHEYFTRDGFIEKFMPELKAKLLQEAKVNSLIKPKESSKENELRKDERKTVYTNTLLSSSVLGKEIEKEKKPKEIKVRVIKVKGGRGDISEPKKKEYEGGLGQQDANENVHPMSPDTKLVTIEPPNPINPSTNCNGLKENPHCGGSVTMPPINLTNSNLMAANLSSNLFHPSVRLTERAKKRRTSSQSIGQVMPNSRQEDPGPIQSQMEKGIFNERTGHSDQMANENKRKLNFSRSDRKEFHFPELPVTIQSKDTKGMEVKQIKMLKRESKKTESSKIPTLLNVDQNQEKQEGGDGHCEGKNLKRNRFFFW
T16 sequence (Q8NE63 whole entry): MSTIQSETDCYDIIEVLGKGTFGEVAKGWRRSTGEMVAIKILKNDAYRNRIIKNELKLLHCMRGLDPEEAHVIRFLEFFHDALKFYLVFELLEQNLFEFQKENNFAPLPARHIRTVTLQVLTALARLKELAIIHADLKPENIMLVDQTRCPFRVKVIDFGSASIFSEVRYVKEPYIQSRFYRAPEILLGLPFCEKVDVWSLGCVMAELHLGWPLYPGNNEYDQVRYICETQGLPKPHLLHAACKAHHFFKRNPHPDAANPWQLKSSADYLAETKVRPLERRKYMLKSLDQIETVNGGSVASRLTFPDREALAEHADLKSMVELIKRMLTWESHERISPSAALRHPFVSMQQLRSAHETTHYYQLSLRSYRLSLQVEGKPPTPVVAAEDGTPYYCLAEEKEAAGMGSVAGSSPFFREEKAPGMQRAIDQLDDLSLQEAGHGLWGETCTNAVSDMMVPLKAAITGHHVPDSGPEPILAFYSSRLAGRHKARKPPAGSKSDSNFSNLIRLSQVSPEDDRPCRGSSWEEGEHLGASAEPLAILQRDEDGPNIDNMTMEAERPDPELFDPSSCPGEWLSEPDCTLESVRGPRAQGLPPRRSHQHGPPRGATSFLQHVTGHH
T1 sequence (Q9UK32 73-330 limits assumed): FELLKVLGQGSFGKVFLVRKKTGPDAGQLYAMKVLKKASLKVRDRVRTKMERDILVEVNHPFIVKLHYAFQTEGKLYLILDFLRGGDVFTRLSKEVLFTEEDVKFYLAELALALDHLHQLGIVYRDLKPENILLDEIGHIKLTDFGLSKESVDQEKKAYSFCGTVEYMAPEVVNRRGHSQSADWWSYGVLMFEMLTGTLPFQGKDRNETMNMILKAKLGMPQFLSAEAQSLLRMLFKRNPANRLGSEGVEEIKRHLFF

## Nc1ccc(N=Nc2ccccc2)c(N)n1 [phenazopyridine, 2,6-diamino-3-(phenylazo)pyridine]
[1]
  kinase inhibition: 86
PIK3CD
  kinase inhibition: 78
LYN
  kinase inhibition: 82
PLK2
  % of control (remaining binding): 92
CSNK2A2
  kinase inhibition: 63
[2]
  kinase inhibition: 64
MERTK
  kinase inhibition: 100
[3]
  kinase inhibition: 67
ADCK4
  kinase inhibition: 90
EGFR(T790M)
  kinase inhibition: 100
CGR8 PSC
  ATP levels: unchanged
CDK7
  kinase inhibition: 50
AXL
  kinase inhibition: 100
AKT2
  kinase inhibition: 100
AKT3
  kinase inhibition: 92
CSK
  kinase inhibition: 100
HIPK4
  kinase inhibition: 72
FLT3; 10 µM
  remaining binding (% of control): 25
FLT3; read-out: % Of control
  remaining binding at 10 µM: 25%
CDKL3
  kinase inhibition: 74
MEK3
  kinase inhibition: 54
ERN1
  kinase inhibition: 82
CAMK2G
  kinase inhibition: 100
ERK3
  kinase inhibition: 95
DAPK1
  kinase inhibition: 86
PKMYT1
  kinase inhibition: 85
SYK
  kinase inhibition: 100
IKK-alpha
  kinase inhibition: 64
PIM3
  kinase inhibition: 100
CDK9
  kinase inhibition: 88
RET(M918T)
  kinase inhibition: 100
CDK11
  kinase inhibition: 90
TGFBR2
  kinase inhibition: 66
MRCKA
  kinase inhibition: 99
MYLK2
  kinase inhibition: 91
EPHA2
  kinase inhibition: 95
EGFR(G719C)
  kinase inhibition: 80
RAF1
  kinase inhibition: 100
SRC
  kinase inhibition: 100
IKK-epsilon
  kinase inhibition: 72
PCTK1
  kinase inhibition: 98
DMPK
  kinase inhibition: 89
BMX
  kinase inhibition: 100
MLK2
  kinase inhibition: 100

From PMC8371461 (Frontiers in Pharmacology, 2021)
